Results as given in article PMC3243694, “Integrated Dataset of Screening Hits against Multiple Neglected Disease Pathogens” (PLoS Neglected Tropical Diseases, 2011).

What was measured:
[1] = tested on: Trypanosoma brucei brucei Squib-427 strain; assay: Antitrypanosomal activity assay, T. brucei (resazurin); assay type: cell-based; settings: T. brucei Squib 427 bloodstream forms, 72 h
Procedure: (§1) The compound set was tested against the following parasites: intra-erythrocytic forms in human red blood cells of P. falciparum K1 strain (malaria), [16], [32], [33], [35], bloodstream forms of T. brucei Squib 427 strain (human African trypanosomiasis, HAT), [31], [32], [34], intracellular amastigotes of T. cruzi Tulahuen CL2, beta- galactosidase strain (Chagas' Disease), [32]–[35], intracellular amastigotes of L. infantum MHOM/MA(BE)/67 (leishmaniasis), [32]–[36], larval and/or adult worms of S. mansoni Puerto Rican strain (schistosomiasis), [31], [37], microfilariae of B. malayi (lymphatic filariasis), [30] and microfilariae of O. ochengi or O. lienalis (onchocerciasis), [30]. It should be noted that the human pathogen for onchocerciasis is Onchocerca volvulus, but due to lack of a suitable in vitro assay or animal models for this pathogen, O. ochengi and lienalis, which are both animal pathogens, are used in the primary and secondary assays, [30].

[2] = tested on: Brugia malayi microfilariae; assay: Anti-Brugia malayi microfilariae motility assay; assay type: cell-based; settings: B. malayi microfilariae; 12.5 µM
Procedure: as §1
As result of logistics issues attributed to lost shipments of some compounds, only 6160 molecules of the 10,000 compound set were tested, at a uniform molarity, against B. malayi, including 6063 against microfilariae and 756 against adult worms (these sets overlap). […] Greatest priority was given to compounds with activity against adult worms, as no macrofilaricide is available for use in control campaigns and the activity of ivermectin as a microfilaricidal agent is unlikely to be bettered in a new series. Of the test set, 53 compounds met the activity criterion for microfilariae (100% motility reduction) and an additional 58 inhibited adult worm motility ≥75% at 10 µM. These were titrated to determine an IC50 value to support prioritization. Following cytotoxicity triage [structures # 1, 4, 6], eight compounds met the activity criterion for adult worms (i.e., 100% inhibition of adult worm motility), four of which were also active against microfilariae [structures # 14, 29, 30, 32]. […] Of these, the most interesting was TDR76699 [structure # 29]; this compound has very good activity against adult worms (IC50 = 0.1 µg/ml) and is also active against microfilariae (IC50 = 0.7 µg/ml). None of the other compounds tested against adult parasites had IC50 values ≤0.5 µg/ml, a threshold which would reduce concerns about specificity. However, a few series [structures # 31, 33, 34], appear interesting for future medicinal chemistry projects.

[3] = tested on: Plasmodium falciparum K1 strain; assay: Anti-Plasmodium activity assay (Malstat); assay type: cell-based; settings: P. falciparum K1, 72 h
Procedure: as §1

[4] = tested on: MRC-5 cell line (diploid human embryonic lung fibroblast); assay: Cytotoxicity on MRC-5 cells; assay type: cell-based
Text: [table] An important part of the screen is the evaluation of all compounds for cytotoxicity using the diploid human embryonic lung fibroblast MRC-5 cell line (Figure 2). Further evaluation of cytotoxicity also takes advantage of the assays for intracellular protozoan parasites, as in the case of L. infantum and T. cruzi, which include murine peritoneal macrophage host cells and MRC-5SV2 human lung fibroblast cells, respectively, in the culture system.

[5] = tested on: Schistosoma mansoni adult worms; assay: Anti-Schistosoma activity assay (adult worm motility); assay type: cell-based; settings: S. mansoni adult worms; 12.5 µM (method: 10 µg/ml or 12.5 µM)
Procedure: as §1
A subset of 9478 of the 10,000 compound collection was tested against the Puerto Rican strain of S. mansoni. 6144 of these were tested in a primary larval assay followed by the ex-vivo adult secondary screen. The remainder was screened only in the adult assay. […] The 65 compounds were sorted by chemical attractiveness, potency against adult schistosomes in culture, selectivity against other parasites, and toxicity to mammalian cells in culture. Based on this analysis, 5 series encompassing 13 compounds were chosen for advancement through the African Network for Drug and Diagnostic Innovation (ANDI) and other PDPs. Representative structures [structures # 13, 27, 28] are shown (Table S1). These compounds are unburdened by obvious toxic moieties, have acceptable compliance with the Lipinski rules, are selectively active against schistosomes and are not overtly toxic to mammalian cells. It has unfortunately not been possible to titrate all of these hits in culture; of about 50% for which such data are available, none has an IC50<2 µg/ml (which is the initial potency criteria).

[6] = tested on: Onchocerca (lienalis or ochengi) microfilariae; assay: Anti-Onchocerca microfilariae motility assay; assay type: cell-based, Onchocerca lienalis or O. ochengi
Procedure: as §1
4240 compound s were screened against O. ochengi at the University of Buea in Cameroon, while a subset of […] compounds was successfully screened in UK by the Northwick Park Institute for Medical Research against O. lienalis, at a uniform molarity. […] After removing molecules that were toxic to mammalian cells (IC50<5 µg/ml), 292 molecules remained for further evaluation. […] From the latter sub-set, […] distinct chemical series and one singleton [structure # 35] were active against both microfilaria and adults. One series [structures # 2, 3] was deemed not interesting due to lack of selectivity against mammalian cells. The remaining series is being transferred to ANDI for further progression as part of a new collaboration.

[7] = tested on: Trypanosoma cruzi, Tulahuen CL2 strain; assay: Antitrypanosomal activity assay, T. cruzi in MRC-5 cells; assay type: cell-based; settings: T. cruzi Tulahuen CL2 in MRC-5 cells, 7 days
Procedure: as §1
171 of the 744 actives passed the initial criterion of IC50<1 µg/ml for T. cruzi Tulahuen CL2, beta galactosidase strain maintained on MRC-5SV2 cells in MEM medium (MRC-5 cell/parasite inoculum: 4.10^3 cells/well+4.10^4 parasites/well), supplemented with […] L-glutamine, 16.5 mM NaHCO3 and 5% heat inactivated fetal calf serum. […] Of these, 109 were eliminated [structures #1–6] for poor selectivity versus mammalian cells (SI<50) and an additional 11 due to undesirable chemical attributes. The remaining 51 compounds were sorted into 10 series (45 compounds) and 6 singletons [structures # 21, 22]. Two of these series with excellent potency against T. cruzi, limited activity against other protozoa and SI values >50 (not shown), have been transferred to DNDi for further evaluation.

| Structure (SMILES) | HAT IC50 [1] [µg/mL] | LF/MF % Motility Reduction at 12.5µM [2] [%] | MAL IC50 [3] [µg/mL] | CYT IC50 [4] [µg/mL] | SCH % Motility Reduction at 12.5µM [5] [%] | ONC/MF % Motility Reduction at 12.5µM [6] [%] | CHA IC50 [7] [µg/mL] |
| --- | --- | --- | --- | --- | --- | --- | --- |
| Cc1c(C(=O)N2CCC(C)CC2)sc2nc(-c3ccc(F)cc3)cn12 [TDR77657] | 0.42 | 0 | >10.72 | >10.72 | 0 | 0 | >10.72 |
| O=S(=O)(NCC(c1cccnc1)N1CCN(Cc2ccccc2)CC1)c1ccc(Cl)cc1 (stereo not drawn) [TDR78023] | >14.13 | – | 2.18 | >14.13 | 0 | 0 | 0.63 |
| C=CCN(CC=C)S(=O)(=O)c1ccc(C(=O)Nc2nc3ccc(C(C)C)cc3s2)cc1 [TDR78794] | >10.99 | – | >10.99 | >10.99 | 100 | 0 | 4.48 |
| O=C(CSc1ccc2nnc(-c3ccccn3)n2n1)NCC1CCCO1 (stereo not drawn) [TDR78834] | 3.3 | – | 3.15 | >12.1 | 0 | 0 | 5.2 |
| COc1ccc(N2CCCS2(=O)=O)cc1NC(=O)c1cc(Cl)ccc1OC [TDR79456] | 4.3 | – | >12.3 | >12.3 | 4 | 13.3 | 5.0 |
| O=C(Nc1nc(-c2ccncc2)cs1)C1CCCN(S(=O)(=O)c2ccc(Cl)s2)C1 (stereo not drawn) [TDR80165] | 4.5 | – | 6.68 | >14.07 | 0 | 50 | 0.24 |
| O=C(CN1CCC(C(=O)Nc2ccc(Oc3ccccc3)cc2)CC1)Nc1ccc(F)cc1 [TDR80731] | >13.43 | – | >13.43 | >13.43 | 0 | 0 | >13.43 |
| Cc1ccc(N2CCn3c2nnc(C(=O)NCCC2=CCCCC2)c3=O)cc1 [TDR81281] | >11.38 | – | 0.15 | >11.38 | 0 | 0 | >11.38 |
| CCOc1ccc2nc(N(Cc3cccnc3)C(=O)c3ccc(Cl)s3)sc2c1 [TDR81636] | 3.52 | 0 | 3.55 | >12.2 | 0 | 11 | 0.66 |
| CCCn1/c(=N/C(=O)C2=COCCO2)sc2c(C)ccc(OC)c21 [TDR82272] | >10.45 | 0 | 3.18 | >10.45 | 0 | 20 | 0.89 |
| O=C(Cc1ccc(F)cc1)Nc1nc(-c2ccccn2)cs1 [TDR82963] | 0.31 | 0 | 2.97 | >9.4 | 0 | 23 | 0.33 |
| COc1ccc(SCC(=O)Nc2nc(-c3ccccn3)cs2)cc1 [TDR83845] | 0.35 | 0 | >10.72 | >10.72 | 0 | 86 | 0.36 |
| CSc1ccc2nc(N(Cc3cccnc3)C(=O)c3ccc(C(C)(C)C)cc3)sc2c1 [TDR84420] | >13.43 | 0 | 0.15 | 7.16 | 0 | 25 | 0.56 |
| CS(=O)(=O)c1ccc2nc(N(Cc3cccnc3)C(=O)c3ccc4ccccc4c3)sc2c1 [TDR84431] | >14.21 | 0 | >14.21 | >14.21 | 0 | 0 | 0.23 |
| Cc1ccc(C(=O)Nc2nnc(Cc3cccs3)o2)cc1C [TDR85275] | 0.38 | 50 | – | – | 25 | 0 | 3.01 |
